In patent publication US20020164721A1, “Design of a polyepitopic construct for the induction of HLA-A2.1 restricted HIV 1 specific CTL responses using HHD mice” (priority 1999, published 2002):
Where “and” joins values, the source holds several entries; their conditions need not be identical. Equal entries are not always repeated. Entries after “also recorded” stand apart in the source; their conditions may differ.

How the values were obtained:
[1] = test system: HHD-transfected RMA-S cells loaded with relevant peptide; experiment: CTL response of HHD mice injected s.c. with tumor epitopic peptide in IFA (51Cr-release assay); type: in vivo; details: for hierarchy of CTL inducers: peptide alone in IFA, by number of responding mice and level of specific lysis; for R/T (responder versus tested mice): no helper, responder = at least 10% specific lysis
[2] = test system: HHD-transfected RMA-S cells loaded with relevant peptide; experiment: CTL response of A2A2Kb mice injected s.c. with tumor epitopic peptide in IFA (51Cr-release assay); type: in vivo; details: responder = at least 10% specific lysis
[3] = test system: HHD-transfected RMA-S target cells loaded with relevant peptide; experiment: CTL response of HHD mice co-immunized in IFA with tumor peptide and HBVc.128 helper peptide; type: in vivo; details: for R/T (responder versus tested mice): 50 μg CD8 peptide + 140 μg HBVc.128 helper in IFA
[4] = test system: HHD-transfected RMAS cells loaded with relevant peptide; experiment: CTL response of HHD mice immunized with peptide-loaded dendritic cells; type: in vivo; details: for lysis in % (highest specific lysis): individual mice 1-6, usually 60/1 E/T; for lysis in % after a second in vitro restimulation: second restimulation with 10% TCGF, individual mice 1-6
[5] = test system: HHD-transfected RMAS cells loaded with relevant peptide; experiment: CTL response of HHD mice immunized with recombinant Ty-VLP; type: in vivo; details: for lysis in % (highest specific lysis): recombinant Ty-VLP carrying the epitope, individual mice 1-6
[6] = test system: HHD-transfected RMAS cells loaded with relevant peptide; experiment: CTL response of HHD mice immunized with monoepitopic pCMV-B10 DNA; type: in vivo; details: for lysis in % (highest specific lysis): pCMV-B10 DNA encoding the epitope, individual mice 1-6
[7] = test system: HHD-transfected RMAS cells loaded with relevant peptide; experiment: CTL response of HHD mice immunized with lipopeptides; type: in vivo; details: lipopeptide of the epitope; individual mice 1-6
[8] = test system: peptide-loaded HHD-transfected RMA-S cells and HHD-transfected HeLa cells expressing the polyepitope; experiment: Melanoma polyepitopic pCMV-B10 DNA immunization of HHD mice, CTL assay; type: in vivo; details: pCMV-B10 DNA with 10 melanoma epitopes, FIG. 1C and D
[9] = molecular target: T1, HLA-A2.1 molecules (Homo sapiens, UniProt P04439, D140Y/D185E/D98H/E176V/E277Q/G131W/G231S/I119V/I121R/I166T/I218V/L300P/L318F/N151K/N90K/P208A/P217A/Q86G/Q94H/R138H/R169H/T345S); type: binding
T1 construct: Using TAP-deficient, HLA-A2.1^+ T2 cells, we evaluated these parameters in an immunofluorescence assay; endogenous in cells; host or cells: T2 cells (TAP-deficient, HLA-A2.1+)

Q: What does the source list for YLEPGPVTA [gp100.280]?
A: hierarchy of CTL inducers [1]: weak; R/T (responder versus tested mice) ([1]; peptide s.c. in IFA): 3/16; R/T (responder versus tested mice) [2]: 0/6; R/T (responder versus tested mice) [3]: 2/8; lysis in % (highest specific lysis) [4]: 0%; lysis in % after a second in vitro restimulation [4]: (1) %; also recorded: (0) %; lysis in % (highest specific lysis) [5]: 8% (2×) and 3% and 1% and 4% and 18%; lysis in % (highest specific lysis) [6]: 0% (2×) and 8% and 36% and 21% and 9%; lysis in % (highest specific lysis) [7]: 0% (2×) and 8% (2×) and 40% and 21%; CTL response against the epitope after melanoma polyepitope DNA immunization (in words) [8]: did not elicit CTL responses; also recorded: No specific lysis

Q: What does the source list for “YLSGANLNL [CEA.571, CEA 571-579 epitopic peptide]”?
A: hierarchy of CTL inducers [1]: strong; R/T (responder versus tested mice) ([1]; peptide s.c. in IFA): 6/6; R/T (responder versus tested mice) [2]: 0/6; R/T (responder versus tested mice) [3]: 3/6; CTL response with helper peptide (in words) ([3]; co-injected with HBVc.128 helper, compared with peptide alone): less immunogenic; lysis in % (highest specific lysis) [4]: 4% (2×) and 1% (2×) and 0% and 2%; lysis in % after a second in vitro restimulation [4]: (1) %; also recorded: (5) %; also recorded: (2) %; also recorded: (0) %; also recorded: (22) %; lysis in % (highest specific lysis) [5]: 56% and 59% and 51% and 58% and 46% and 62%; CTL responses (in words) ([5]; recombinant Ty-VLP, all animals tested): strong CTL responses; lysis in % (highest specific lysis) [6]: 19% and 66% and 40% and 65% and 62% and 55%; CTL responses (in words) ([6]; recombinant pCMV-B10-DNA, all animals tested): strong CTL responses; lysis in % (highest specific lysis) [7]: 0% (2×) and 8% (2×) and 34% and 3%

Q: How did the “hierarchy of CTL inducers” value [1] turn out when YMDGTMSQV [Tyrosinase.368-D] was run?
A: weak

Q: And the “R/T (responder versus tested mice)” value ([1]; peptide s.c. in IFA)?
A: 1/6

Q: And the “lysis in % (maximal lysis for each responder mouse)” value ([1]; peptide s.c. in IFA, usually 60:1 E/T ratio)?
A: (10) %

Q: And the “R/T (responder versus tested mice)” value [2]?
A: 0/6

Q: What about the “RA (relative affinity)” value [9] of the same sequence?
A: 2.27

Q: What about the “R/T (responder versus tested mice)” value [3] of the same sequence?
A: 2/6

Q: And the “lysis in % (highest specific lysis)” value [4]?
A: 12% and 20% and 8% and 3% and 7% and 23%

Q: And the “lysis in % after a second in vitro restimulation” value [4]?
A: (64) %; also recorded: (92) %; also recorded: (71) %; also recorded: (68) %; also recorded: (56) %

Q: And the “lysis in % (highest specific lysis)” value [6]?
A: 57% and 55% and 28% (2×) and 58% and 56%

Q: And the “lysis in % (highest specific lysis)” value [7]?
A: 0% (3×) and 10% and 1% and 4%

Q: What about the “CTL response against the epitope after melanoma polyepitope DNA immunization (in words)” value [8] of the same sequence?
A: elicited CTL responses depending on mice

Q: With YMNGTMSOV [Tyrosinase.368-N] as the sequence, how does the “hierarchy of CTL inducers” value [1] read?
A: intermediate

Q: What about the “R/T (responder versus tested mice)” value ([1]; peptide s.c. in IFA) of the same sequence?
A: 4/15

Q: And the “R/T (responder versus tested mice)” value [2]?
A: 0/6

Q: What about the “RA (relative affinity)” value [9] of the same sequence?
A: 2.2

Q: What about the “R/T (responder versus tested mice)” value [3] of the same sequence?
A: 5/12

Q: And the “lysis in % (highest specific lysis)” value [4]?
A: 0% (4×) and 8% and 15%

Q: What about the “lysis in % after a second in vitro restimulation” value [4] of the same sequence?
A: (3) %; also recorded: (17) %; also recorded: (30) %; also recorded: (80) %; also recorded: (61) %; also recorded: (1) %

Q: What about the “lysis in % (highest specific lysis)” value [5] of the same sequence?
A: 0% and 61% and 58% and 39% and 29% and 17%

Q: And the “lysis in % (highest specific lysis)” value [6]?
A: 6% and 12% and 16% and 13% and 11% and 38%

Q: What about the “lysis in % (highest specific lysis)” value [7] of the same sequence?
A: 51% and 20% and 0% and 5% and 11% and 12%
